Drawing on patent US8163909B2, “Substituted hydroxyethyl amine compounds as beta-secretase modulators and methods of use” (Amgen Inc., priority 2007, dated 2012), this text covers IC50 for 40 compounds.

Assay [1] concerns the target Beta Secretase enzyme (BACE) (Homo sapiens, UniProt P56817). The experiment in a line: In vitro enzymatic BACE FRET (fluorescence resonance energy transfer) assay.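 Further: fluorescence read after 1 h with 50 nM quenched peptide substrate spanning the BACE cleavage site, in pH 4.2 acetate buffer containing 10% DMSO and nonionic detergent.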 Type of assay: biochemical. Conditions: read-out: BACE1 FRET assay.
Assay [2] relates to Aβ40 in conditioned medium of cells stably expressing Amyloid Precursor Protein (APP). The experiment in a line: In vitro BACE cell-based assay (Aβ40 in conditioned medium, sandwich ELISA).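 Further: compounds added as a dilution series, secreted peptide quantified by europium time-resolved fluorescence readout, potency fitted from percent of control versus compound concentration.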 Conditions: Homo sapiens, read-out: HEK cell assay. For orientation: An ELISA detects its analyte on a solid surface through an enzyme-linked reagent.

SMILES strings stand for the structures. Read-outs that look alike come from different tables or passages of the source. Bounds are passed on as bounds.

Sequence of Beta Secretase enzyme (BACE) (P56817 46-501): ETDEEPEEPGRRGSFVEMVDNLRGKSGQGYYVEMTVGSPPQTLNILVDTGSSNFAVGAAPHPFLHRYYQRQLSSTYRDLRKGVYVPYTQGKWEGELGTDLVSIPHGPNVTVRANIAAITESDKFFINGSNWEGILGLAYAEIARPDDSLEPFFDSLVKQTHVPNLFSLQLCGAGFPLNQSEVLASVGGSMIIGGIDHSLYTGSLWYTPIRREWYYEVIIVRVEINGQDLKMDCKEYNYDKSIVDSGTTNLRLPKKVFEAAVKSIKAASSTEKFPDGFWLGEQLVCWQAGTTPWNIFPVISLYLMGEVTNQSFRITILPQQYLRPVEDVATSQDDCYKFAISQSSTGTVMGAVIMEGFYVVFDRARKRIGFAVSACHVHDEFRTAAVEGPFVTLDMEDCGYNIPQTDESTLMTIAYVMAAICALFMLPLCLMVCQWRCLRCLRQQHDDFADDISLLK

For `CO[C@H](C)C(=O)N[C@@H](Cc1ccc2c(c1)OCO2)[C@H](O)CN[C@H]1CC2(CCC2)Oc2ncc([C@H](F)C(C)(C)C)cc21` [compound 330], the IC50 stood at 22.1 nM in assay [1] (Table 1) and 43.9 nM in assay [2] (HEK293, Table 1, HEK cells).
On the same counts, the results for `CO[C@@H](C)C(=O)N[C@@H](Cc1ccc2c(c1)OCO2)[C@H](O)CN[C@H]1CC2(CCC2)Oc2ncc([C@H](F)C(C)(C)C)cc21` [compound 331] are 51.5 nM and 44.6 nM.
For `COCC(=O)N[C@@H](Cc1ccc(F)cc1)[C@H](O)CN[C@H]1CC2(CCC2)Oc2ncc(CC(C)C)cc21` [compound 332], in that order: 10.9 nM and 18.9 nM.
On the same counts, the results for `CO[C@H](C)C(=O)N[C@@H](Cc1ccc(F)cc1)[C@H](O)CN[C@H]1CC2(CCC2)Oc2ncc(CC(C)C)cc21` [compound 333] are 28.9 nM and 47.9 nM.
As to `COCC(=O)N[C@@H](Cc1ccc2c(c1)OCO2)[C@H](O)CN[C@H]1CC2(CCC2)Oc2ncc(CC(C)C)cc21` [compound 334], the IC50 is 48 nM in assay [1] (Table 1) and 67.2 nM in assay [2] (HEK293, Table 1, HEK cells).
For `CO[C@H](C)C(=O)N[C@@H](Cc1ccc2c(c1)OCO2)[C@H](O)CN[C@H]1CC2(CCC2)Oc2ncc(CC(C)C)cc21` [compound 335], in that order: 38.3 nM and 76.5 nM.
For the compound `CO[C@H](C)C(=O)N[C@@H](Cc1ccc2c(c1)OCO2)[C@H](O)CN[C@H]1CC2(CCC2)Oc2nc(F)c(CC(C)C)cc21` [compound 336], the IC50 in assay [1] (Table 1) was determined as 135 nM; in assay [2] (HEK293, Table 1, HEK cells), 404 nM.
For the compound `COCC(=O)N[C@@H](Cc1ccc2c(c1)OCO2)[C@H](O)CN[C@H]1CC2(CCC2)Oc2nc(F)c(CC(C)C)cc21` [compound 337], the IC50 in assay [1] (Table 1) stood at 120 nM; in assay [2] (HEK293, Table 1, HEK cells) it was 531 nM.
For `CC(=O)N[C@@H](Cc1ccc2c(c1)OCO2)[C@H](O)CN[C@H]1CC2(CCC2)Oc2nc(F)c(CC(C)C)cc21` [compound 338], in that order: 109 nM and 252 nM.
With `COCC(=O)N[C@@H](Cc1ccc2c(c1)OCO2)[C@H](O)CN[C@H]1CC2(CCC2)Oc2ncc(C[C@H](C)C(F)(F)F)cc21` [compound 339], the IC50 in assay [1] (Table 1) was found to be 43.7 nM; in assay [2] (HEK293, Table 1, HEK cells) it was 126 nM.
For `CO[C@H](C)C(=O)N[C@@H](Cc1ccc2c(c1)OCO2)[C@H](O)CN[C@H]1CC2(CCC2)Oc2ncc(C[C@H](C)C(F)(F)F)cc21` [compound 340], in that order: 148 nM and 90.6 nM.
For `COCC(=O)N[C@@H](Cc1ccc2c(c1)OCO2)[C@H](O)CN[C@H]1CC2(CCC2)Oc2ncc(C[C@@H](C)C(F)(F)F)cc21` [compound 341], in that order: 59.5 nM and 138 nM.
For `CO[C@H](C)C(=O)N[C@@H](Cc1ccc2c(c1)OCO2)[C@H](O)CN[C@H]1CC2(CCC2)Oc2ncc(C[C@@H](C)C(F)(F)F)cc21` [compound 342], in that order: 175 nM and 343 nM.
In the case of `CO[C@H](C)C(=O)N[C@@H](Cc1cc(F)c2c(c1)OCO2)[C@H](O)CN[C@H]1CC2(CCC2)Oc2ncc(CC(C)C)cc21` [compound 343], the IC50 in assay [1] (Table 1) was determined as 34.4 nM; in assay [2] (HEK293, Table 1, HEK cells), 41.7 nM.
On the same counts, the results for `CO[C@H](C)C(=O)N[C@@H](Cc1cccc(F)c1)[C@H](O)CN[C@H]1CC2(CCC2)Oc2ncc(CC(F)(F)F)cc21` [compound 344] are 8.94 nM and 44.2 nM.
On the same counts, the results for `CO[C@H](C)C(=O)N[C@@H](Cc1cccc(C#N)c1)[C@H](O)CN[C@H]1CC2(CCC2)Oc2ncc(CC(F)(F)F)cc21` [compound 345] are 26.6 nM and 60.9 nM.
On the same counts, the results for `CO[C@H](C)C(=O)N[C@@H](Cc1cc(F)cc(F)c1)[C@H](O)CN[C@H]1CC2(CCC2)Oc2ncc(CC(F)(F)F)cc21` [compound 346] are 10.2 nM and 47.1 nM.
With `COCC(=O)N[C@@H](Cc1cccc(C#N)c1)[C@H](O)CN[C@H]1CC2(CCC2)Oc2ncc(CC(F)(F)F)cc21` [compound 347], the IC50 in assay [1] (Table 1) turned out to be 10.4 nM; in assay [2] (HEK293, Table 1, HEK cells), 19.2 nM.
On to `COCC(=O)N[C@@H](Cc1cc(F)cc(F)c1)[C@H](O)CN[C@H]1CC2(CCC2)Oc2ncc(CC(F)(F)F)cc21` [compound 348], for which the IC50 in assay [1] (Table 1) was determined as 6.88 nM; in assay [2] (HEK293, Table 1, HEK cells), 18.2 nM.
Turning to `COCC(=O)NC(Cc1cc(F)cc(F)c1)C(O)CNC1CC2(CCC2)Oc2ncc(C(O)C(F)(F)F)cc21` (centres unmarked) [compound 349], the IC50 in assay [1] (Table 1) turned out to be 166 nM; in assay [2] (HEK293, Table 1, HEK cells) it was 139 nM.
On the same counts, the results for `COCC(=O)N[C@@H](Cc1cccc(F)c1)[C@H](O)CN[C@H]1CC2(CCC2)Oc2ncc(CC(F)(F)F)cc21` [compound 350] are 9.09 nM and 24.5 nM.
For `COCC(=O)N[C@@H](Cc1ccc(F)c(Cl)c1)[C@H](O)CN[C@H]1CC2(CCC2)Oc2ncc(CC(C)(C)C)cc21` [compound 351], in that order: 2.75 nM and 12.3 nM.
On the same counts, the results for `COCC(=O)N[C@@H](Cc1ccc(F)c(Br)c1)[C@H](O)CN[C@H]1CC2(CCC2)Oc2ncc(CC(C)(C)C)cc21` [compound 352] are 3.71 nM and 17.6 nM.
For `CC(=O)N[C@@H](Cc1ccc(F)c(Br)c1)[C@H](O)CN[C@H]1CC2(CCC2)Oc2ncc(OC(C)(C)C)cc21` [compound 353, N-((1S,2R)-1-((3-bromo-4-fluorophenyl)methyl)-3-(((4′S)-6′-((1,1-dimethylethyl)oxy)-3′,4′-dihydrospiro[cyclobutane-1,2′-pyrano[2,3-b]pyridin]-4′-yl)amino)-2-hydroxypropyl)acetamide], the IC50 in assay [1] (Table 1) amounted to 120 nM; in assay [2] (HEK293, Table 1, HEK cells), 424 nM.
On the same counts, the results for `CC(=O)N[C@@H](Cc1ccc(F)c(Br)c1)[C@H](O)CN(C)[C@H]1CC2(CCC2)Oc2ncc(CC(C)(C)C)cc21` [compound 354] are 4780 nM and 3490 nM.
For `CC(=O)N[C@@H](Cc1ccc(F)cc1)[C@H](O)CNC1c2cc(CC(C)(C)C)cnc2OC2(CCC2)C1F` (some centres unmarked) [compound 355], in that order: 117 nM and 113 nM.
In the case of `COCC(=O)N[C@@H](Cc1ccccc1)[C@H](O)CN[C@H]1CC2(CCC2)Oc2ncc([C@H](F)C(C)(C)C)cc21` [compound 356], the IC50 was 3.17 nM in assay [1] (Table 1) and 6.46 nM in assay [2] (HEK293, Table 1, HEK cells).
With `CC(=O)N[C@@H](Cc1ccc(F)cc1)[C@H](O)CN[C@@H]1c2cc(CC(C)(C)C)cnc2OC2(CCC2)[C@H]1F` [compound 357], the IC50 is 13300 nM in assay [1] (Table 1) and above 10000 nM in assay [2] (HEK293, Table 1, HEK cells).
On the same counts, the results for `CC(=O)N[C@@H](Cc1ccc(F)cc1)[C@H](O)CN[C@@H]1c2cc(CC(C)(C)C)cnc2OC2(CCC2)[C@@H]1F` [compound 358] are 22.4 nM and 353 nM.
For `COC(=O)N[C@@H](Cc1ccc2c(c1)OCO2)[C@H](O)CN[C@H]1CC2(CCC2)Oc2ncc([C@H](F)C(C)(C)C)cc21` [compound 359], in that order: 199 nM and 208 nM.
For `CO[C@H](C)C(=O)N[C@@H](Cc1cccc(F)c1)[C@H](O)CN[C@H]1CC2(CCC2)Oc2ncc(CC(C)(C)C)cc21` [compound 360], in that order: 3.11 nM and 4.82 nM.
Regarding `CO[C@@H](C)C(=O)N[C@@H](Cc1cccc(F)c1)[C@H](O)CN[C@H]1CC2(CCC2)Oc2ncc(CC(C)(C)C)cc21` [compound 361], the IC50 came out at 6.58 nM in assay [1] (Table 1) and 9.23 nM in assay [2] (HEK293, Table 1, HEK cells).
Turning to `COCC(=O)N[C@@H](Cc1ccc2c(c1)OCO2)[C@H](O)CN[C@H]1CC2(CCC2)Oc2ncc(CC(C)(C)C(F)(F)F)cc21` [compound 362], the IC50 in assay [1] (Table 1) is 60.1 nM; in assay [2] (HEK293, Table 1, HEK cells), 123 nM.
Consider `CO[C@H](C)C(=O)N[C@@H](Cc1ccc2c(c1)OCO2)[C@H](O)CN[C@H]1CC2(CCC2)Oc2ncc(CC(C)(C)C(F)(F)F)cc21` [compound 363], for which the IC50 came out at 49 nM in assay [1] (Table 1) and 160 nM in assay [2] (HEK293, Table 1, HEK cells).
Take `CC(F)C(=O)N[C@@H](Cc1ccc2c(c1)OCO2)[C@H](O)CN[C@H]1CC2(CCC2)Oc2ncc(CC(C)(C)C)cc21` (stereo partly drawn) [compound 452, N-((1S,2R)-1-(1,3-benzodioxol-5-ylmethyl)-3-(((4′S)-6′-(2,2-dimethylpropyl)-3′,4′-dihydrospiro[cyclobutane-1,2′-pyrano[2,3-b]pyridin]-4′-yl)amino)-2-hydroxypropyl)-2-fluoropropanamide]: the IC50 in assay [1] (Table 2) is 16 nM; in assay [2] (HEK293, Table 2, HEK cells), 39 nM.
On the same counts, the results for `CC(C)(C)Cc1cnc2c(c1)[C@@H](NC[C@@H](O)[C@H](Cc1ccc3c(c1)OCO3)NC(=O)[C@@H]1CCCO1)CC1(CCC1)O2` [compound 453] are 22 nM and 37 nM.
Turning to `CC(C)(C)Cc1cnc2c(c1)[C@@H](NC[C@@H](O)[C@H](Cc1ccc3c(c1)OCO3)NC(=O)[C@H]1CCCO1)CC1(CCC1)O2` [compound 454, (2R)-N-((1S,2R)-1-(1,3-benzodioxol-5-ylmethyl)-3-(((4′S)-6′-(2,2-dimethylpropyl)-3′,4′-dihydrospiro[cyclobutane-1,2′-pyrano[2,3-b]pyridin]-4′-yl)amino)-2-hydroxypropyl)tetrahydro-2-furancarboxamide], the IC50 in assay [1] (Table 2) was 20 nM; in assay [2] (HEK293, Table 2, HEK cells), 27 nM.
With `COCC(=O)N[C@@H](Cc1cccc(F)c1)[C@H](O)CN[C@H]1CC2(CCC2)Oc2c(-c3ccncc3)cc(CC(C)(C)F)cc21` [compound 530], the IC50 in assay [1] (BACE enzyme assay) is 15 nM; in assay [2] (HEK293, HEK cells) it was 10 nM.
For `COCC(=O)N[C@@H](Cc1ccc(F)cc1)[C@H](O)CN[C@H]1CC2(CCC2)Oc2c(-c3ccncc3)cc(CC(C)(C)F)cc21` [compound 538], in that order: 47 nM and 43 nM.
On the same counts, the results for `CO[C@H](C)C(=O)N[C@@H](Cc1cccc(F)c1)[C@H](O)CN[C@H]1CC2(CCC2)Oc2c(-c3ccncc3)cc(CC(C)(C)F)cc21` [compound 564] are 32 nM and 29 nM.
